Among the data in US7872014B2, “Anaplastic lymphoma kinase modulators and methods of use” (Exelixis, Inc., priority 2003, dated 2011) are IC50 values, retold here.

T1 sequence (Q9UM73 1098-1410): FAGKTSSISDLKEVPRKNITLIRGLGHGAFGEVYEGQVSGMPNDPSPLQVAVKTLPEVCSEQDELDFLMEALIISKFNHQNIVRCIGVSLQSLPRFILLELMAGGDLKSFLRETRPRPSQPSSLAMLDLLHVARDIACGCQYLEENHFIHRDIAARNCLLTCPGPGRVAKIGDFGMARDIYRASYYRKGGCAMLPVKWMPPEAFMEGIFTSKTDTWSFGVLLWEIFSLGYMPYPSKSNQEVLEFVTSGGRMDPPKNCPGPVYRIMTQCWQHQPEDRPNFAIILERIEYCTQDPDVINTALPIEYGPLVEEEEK

This assay addresses T1, ALK (baculovirus expressed human ALK kinase domain F1098-K1410) (Homo sapiens, UniProt Q9UM73).
T1 construct: baculovirus expressed human ALK kinase domain F1098-K1410; made in house
In words: Luciferase-Coupled Chemiluminescent Kinase assay (LCCA), ALK biochemical activity. As to conditions: inhibition of ALK; mean values; 1 μM ATP, 4 μM poly-AEKY, 12 nM ALK, 2 hours ambient temperature. In outline: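 Luciferase-coupled readout of ATP remaining after reaction of 12 nM ALK kinase domain with 1 μM ATP and 4 μM poly-AEKY, Tris-HCl pH 7.5 buffer with MgCl2 and MnCl2. Incubated 2 h at ambient temperature; inhibition derived from ATP consumption across serial compound dilutions.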
For the molecule `COc1c(OCCN2CCOCC2)cc(F)c2c(-c3ccc(O)c(Cl)c3)nc3[nH]nc(C)c3c12` [Example 206, 2-chloro-4-{6-fluoro-1-methyl-9-(methyloxy)-8-[(2-morpholin-4-ylethyl)oxy]-3H-pyrazolo[3,4-c]isoquinolin-5-yl}phenol], the IC50 was ≤ 99 nM.
As for `CCCCN(CC)CCOc1cc(F)c2c(-c3ccc(O)c(Cl)c3)nc3[nH]nc(C)c3c2c1OC` [Example 207, 4-[8-({2-[butyl(ethyl)amino]ethyl}oxy)-6-fluoro-1-methyl-9-(methyloxy)-3H-pyrazolo[3,4-c]isoquinolin-5-yl]-2-chlorophenol], the figure is ≤ 99 nM; as for `COc1c(OC[C@H](N)C(C)C)cc(F)c2c(-c3ccc(O)c(Cl)c3)nc3[nH]nc(C)c3c12` [Example 208, 4-[8-{[(2R)-2-amino-3-methylbutyl]oxy}-6-fluoro-1-methyl-9-(methyloxy)-3H-pyrazolo[3,4-c]isoquinolin-5-yl]-2-chlorophenol], ≤ 99 nM; as for `COc1c(OCCC2CCN(C)CC2)cc(F)c2c(-c3ccc(O)c(Cl)c3)nc3[nH]nc(C)c3c12` [Example 209, 2-chloro-4-(6-fluoro-1-methyl-9-(methyloxy)-8-{[2-(1-methylpiperidin-4-yl)ethyl]oxy}-3H-pyrazolo[3,4-c]isoquinolin-5-yl)phenol], ≤ 99 nM.
Turning to `CCN1CCC(COc2cc(F)c3c(-c4ccc(O)c(Cl)c4)nc4[nH]nc(C)c4c3c2OC)CC1` [Example 210, 2-chloro-4-[8-{[(1-ethylpiperidin-4-yl)methyl]oxy}-6-fluoro-1-methyl-9-(methyloxy)-3H-pyrazolo[3,4-c]isoquinolin-5-yl]phenol], the IC50 is ≤ 99 nM.
Regarding `Cc1n[nH]c2nc(-c3nnc(N)s3)c3c(F)cc(O)c(F)c3c12` [Example 212, 5-(5-amino-1,3,4-thiadiazol-2-yl)-6,9-difluoro-1-methyl-3H-pyrazolo[3,4-c]isoquinolin-8-ol], the IC50 lay in the range of 100 to 999 nM.
`COc1c(OC[C@H](N)C(C)(C)C)cc(F)c2c(-c3ccc(O)c(Cl)c3)nc3[nH]nc(C)c3c12` [Example 213, 4-[8-{[(2R)-2-amino-3,3-dimethylbutyl]oxy}-6-fluoro-1-methyl-9-(methyloxy)-3H-pyrazolo[3,4-c]isoquinolin-5-yl]-2-chlorophenol]: the IC50 was ≤ 99 nM.
Next, `COc1c(OCCN2CCN(CC(C)C)CC2)cc(F)c2c(-c3ccc(O)c(Cl)c3)nc3[nH]nc(C)c3c12` [Example 214, 2-chloro-4-[6-fluoro-1-methyl-9-(methyloxy)-8-({2-[4-(2-methylpropyl)piperazin-1-yl]ethyl}oxy)-3H-pyrazolo[3,4-c]isoquinolin-5-yl]phenol]: ≤ 99 nM.
As for `CCN1CC2CC1CN2CCOc1cc(F)c2c(-c3ccc(O)c(Cl)c3)nc3[nH]nc(C)c3c2c1OC` (stereo not shown) [Example 215, 2-chloro-4-[8-{[2-(5-ethyl-2,5-diazabicyclo[2.2.1]hept-2-yl)ethyl]oxy}-6-fluoro-1-methyl-9-(methyloxy)-3H-pyrazolo[3,4-c]isoquinolin-5-yl]phenol], the figure is ≤ 99 nM; as for `COc1c(OCCN2CCN(C(C)C)CC2)cc(F)c2c(-c3ccc(O)c(Cl)c3)nc3[nH]nc(C)c3c12` [Example 216, 2-chloro-4-[6-fluoro-1-methyl-8-({2-[4-(1-methylethyl)piperazin-1-yl]ethyl}oxy)-9-(methyloxy)-3H-pyrazolo[3,4-c]isoquinolin-5-yl]phenol], ≤ 99 nM; as for `COc1c(OCCN2C3CCC2CC(N)C3)cc(F)c2c(-c3ccc(O)c(Cl)c3)nc3[nH]nc(C)c3c12` (stereo not shown) [Example 217, 4-[8-{[2-(3-amino-8-azabicyclo[3.2.1]oct-8-yl)ethyl]oxy}-6-fluoro-1-methyl-9-(methyloxy)-3H-pyrazolo[3,4-c]isoquinolin-5-yl]-2-chlorophenol], ≤ 99 nM.
Next, `CCN1CCC(CCOc2cc(F)c3c(-c4ccc(O)c(Cl)c4)nc4[nH]nc(C)c4c3c2OC)CC1` [Example 218, 2-chloro-4-[8-{[2-(1-ethylpiperidin-4-yl)ethyl]oxy}-6-fluoro-1-methyl-9-(methyloxy)-3H-pyrazolo[3,4-c]isoquinolin-5-yl]phenol]: ≤ 99 nM.
For the molecule `CCN(CC)CCOc1cc(F)c2c(-c3ccc(O)c(Cl)c3)nc3[nH]nc(C)c3c2c1OC` [Example 219, 2-chloro-4-[8-{[2-(diethylamino)ethyl]oxy}-6-fluoro-1-methyl-9-(methyloxy)-3H-pyrazolo[3,4-c]isoquinolin-5-yl]phenol], the IC50 was ≤ 99 nM.
Turning to `COc1c(OCCN2CCCC2)cc(F)c2c(-c3ccc(Cl)c(O)c3)nc3[nH]nc(C)c3c12` [Example 220, 2-chloro-5-{6-fluoro-1-methyl-9-(methyloxy)-8-[(2-pyrrolidin-1-ylethyl)oxy]-3H-pyrazolo[3,4-c]isoquinolin-5-yl}phenol], the IC50 is ≤ 99 nM.
In the case of `Cc1n[nH]c2nc(-c3cn(C)c(=N)s3)c3c(F)cc(O)c(F)c3c12` [Example 221, 6,9-difluoro-5-(2-imino-3-methyl-2,3-dihydro-1,3-thiazol-5-yl)-1-methyl-3H-pyrazolo[3,4-c]isoquinolin-8-ol], the IC50 fell in the range of 1000 to 2000 nM.
On to `COc1c(OC2CC3CCC(C2)N3C)cc(F)c2c(-c3ccc(O)c(Cl)c3)nc3[nH]nc(C)c3c12` (stereo not shown) [Example 223, 2-chloro-4-[6-fluoro-1-methyl-8-[(8-methyl-8-azabicyclo[3.2.1]oct-3-yl)oxy]-9-(methyloxy)-3H-pyrazolo[3,4-c]isoquinolin-5-yl]phenol], for which the IC50 was ≤ 99 nM.
As to `COc1c(OCCCN2CCCC2)cc(F)c2c(-c3ccc(O)c(Cl)c3)nc3[nH]nc(C)c3c12` [Example 224, 2-chloro-4-{6-fluoro-1-methyl-9-(methyloxy)-8-[(3-pyrrolidin-1-ylpropyl)oxy]-3H-pyrazolo[3,4-c]isoquinolin-5-yl}phenol], the IC50 is ≤ 99 nM.
Take `COc1c(OCCCN2CCCCC2)cc(F)c2c(-c3ccc(O)c(Cl)c3)nc3[nH]nc(C)c3c12` [Example 225, 2-chloro-4-{6-fluoro-1-methyl-9-(methyloxy)-8-[(3-piperidin-1-ylpropyl)oxy]-3H-pyrazolo[3,4-c]isoquinolin-5-yl}phenol]: the IC50 is ≤ 99 nM.
As for `COc1c(OCCCN2CCOCC2)cc(F)c2c(-c3ccc(O)c(Cl)c3)nc3[nH]nc(C)c3c12` [Example 226, 2-chloro-4-{6-fluoro-1-methyl-9-(methyloxy)-8-[(3-morpholin-4-ylpropyl)oxy]-3H-pyrazolo[3,4-c]isoquinolin-5-yl}phenol], the IC50 is ≤ 99 nM.
`COc1c(OCCN(C)CCN(C)C)cc(F)c2c(-c3ccc(O)c(Cl)c3)nc3[nH]nc(C)c3c12` [Example 227, 2-chloro-4-[8-({2-[[2-(dimethylamino)ethyl](methyl)amino]ethyl}oxy)-6-fluoro-1-methyl-9-(methyloxy)-3H-pyrazolo[3,4-c]isoquinolin-5-yl]phenol]: the IC50 is ≤ 99 nM.
For `CCN(CC)CCN(C)CCOc1cc(F)c2c(-c3ccc(O)c(Cl)c3)nc3[nH]nc(C)c3c2c1OC` [Example 228, 2-chloro-4-[8-({2-[[2-(diethylamino)ethyl](methyl)amino]ethyl}oxy)-6-fluoro-1-methyl-9-(methyloxy)-3H-pyrazolo[3,4-c]isoquinolin-5-yl]phenol], the IC50 was ≤ 99 nM.
For `CCN(CCOc1cc(F)c2c(-c3ccc(O)c(Cl)c3)nc3[nH]nc(C)c3c2c1OC)CCN(C)C` [Example 229, 2-chloro-4-[8-({2-[[2-(dimethylamino)ethyl](ethyl)amino]ethyl}oxy)-6-fluoro-1-methyl-9-(methyloxy)-3H-pyrazolo[3,4-c]isoquinolin-5-yl]phenol], the IC50 was ≤ 99 nM.
For `COc1c(OCCN(CCCN(C)C)CCCN(C)C)cc(F)c2c(-c3ccc(O)c(Cl)c3)nc3[nH]nc(C)c3c12` [Example 230, 4-[8-[(2-{bis[3-(dimethylamino)propyl]amino}ethyl)oxy]-6-fluoro-1-methyl-9-(methyloxy)-3H-pyrazolo[3,4-c]isoquinolin-5-yl]-2-chlorophenol], the IC50 was ≤ 99 nM.
In the case of `COc1c(OCCN(C)C2CCN(C)C2)cc(F)c2c(-c3ccc(O)c(Cl)c3)nc3[nH]nc(C)c3c12` (stereo not shown) [Example 231, 2-chloro-4-[6-fluoro-1-methyl-8-({2-[methyl(1-methylpyrrolidin-3-yl)amino]ethyl}oxy)-9-(methyloxy)-3H-pyrazolo[3,4-c]isoquinolin-5-yl]phenol], the IC50 is ≤ 99 nM.
With `COC[C@@H]1CCCN1CCOc1cc(F)c2c(-c3ccc(O)c(Cl)c3)nc3[nH]nc(C)c3c2c1OC` [Example 232, 2-chloro-4-{6-fluoro-1-methyl-9-(methyloxy)-8-[(2-{(2S)-2-[(methyloxy)methyl]pyrrolidin-1-yl}ethyl)oxy]-3H-pyrazolo[3,4-c]isoquinolin-5-yl}phenol], the IC50 was ≤ 99 nM.
As for `COc1c(OCCN2CCC(N3CCCC3)CC2)cc(F)c2c(-c3ccc(O)c(Cl)c3)nc3[nH]nc(C)c3c12` [Example 233, 2-chloro-4-(6-fluoro-1-methyl-9-(methyloxy)-8-{[2-(4-pyrrolidin-1-ylpiperidin-1-yl)ethyl]oxy}-3H-pyrazolo[3,4-c]isoquinolin-5-yl)phenol], the IC50 was ≤ 99 nM.
As to `COc1c(OCCN2CCN(C3CCCCC3)CC2)cc(F)c2c(-c3ccc(O)c(Cl)c3)nc3[nH]nc(C)c3c12` [Example 234, 2-chloro-4-[8-{[2-(4-cyclohexylpiperazin-1-yl)ethyl]oxy}-6-fluoro-1-methyl-9-(methyloxy)-3H-pyrazolo[3,4-c]isoquinolin-5-yl]phenol], the IC50 was ≤ 99 nM.
With `COc1c(OCCN2CCN(CC(=O)NC(C)C)CC2)cc(F)c2c(-c3ccc(O)c(Cl)c3)nc3[nH]nc(C)c3c12` [Example 235, 2-[4-(2-{[5-(3-chloro-4-hydroxyphenyl)-6-fluoro-1-methyl-9-(methyloxy)-3H-pyrazolo[3,4-c]isoquinolin-8-yl]oxy}ethyl)piperazin-1-yl]-N-(1-methylethyl)acetamide], the IC50 is ≤ 99 nM.

Broadly, the IC50 is the midpoint of a concentration-inhibition curve. Read a low IC50 as higher potency.
